PubChem BioAssay (NCI)
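Values below derive from 48-hour exposures of cells grown in 96-well plates, with endpoints linearly interpolated between the two concentrations bracketing the appropriate inhibition level. GI50 = concentration required for 50% inhibition of growth. TGI: total growth inhibition.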

Key:
Experiment in all cases: NCI-60 cell line screen, 48 h
U251 CNS = system: U251 CNS
OVCAR-3 ovarian = system: OVCAR-3 ovarian
BT-549 breast = system: BT-549 breast
MALME-3M melanoma = system: MALME-3M melanoma
786-0 renal = system: 786-0 renal
IGROV1 ovarian = system: IGROV1 ovarian
OVCAR-8 ovarian = system: OVCAR-8 ovarian
CCRF-CEM leukemia = system: CCRF-CEM leukemia
HOP-92 NSCLC = system: HOP-92 NSCLC
SW-620 colon = system: SW-620 colon
SF-268 CNS = system: SF-268 CNS
K-562 leukemia = system: K-562 leukemia
PC-3 prostate = system: PC-3 prostate
HT29 colon = system: HT29 colon
UACC-257 melanoma = system: UACC-257 melanoma
RXF 393 renal = system: RXF 393 renal
DU-145 prostate = system: DU-145 prostate
HCT-116 colon = system: HCT-116 colon
SK-MEL-28 melanoma = system: SK-MEL-28 melanoma
A498 renal = system: A498 renal
NCI-H522 lung = system: NCI-H522 lung
RPMI-8226 leukemia = system: RPMI-8226 leukemia
MDA-MB-435 = system: MDA-MB-435
HCT-15 colon = system: HCT-15 colon
OVCAR-4 ovarian = system: OVCAR-4 ovarian
CAKI-1 renal = system: CAKI-1 renal
NCI-H460 lung = system: NCI-H460 lung
HCC-2998 colon = system: HCC-2998 colon
MCF7 breast = system: MCF7 breast
TK-10 renal = system: TK-10 renal
ACHN renal = system: ACHN renal
HOP-62 NSCLC = system: HOP-62 NSCLC
UACC-62 melanoma = system: UACC-62 melanoma
SNB-19 CNS = system: SNB-19 CNS
HL-60(TB) leukemia = system: HL-60(TB) leukemia
NCI/ADR-RES ovarian = system: NCI/ADR-RES ovarian
SK-MEL-5 melanoma = system: SK-MEL-5 melanoma
MOLT-4 leukemia = system: MOLT-4 leukemia
M14 melanoma = system: M14 melanoma
MDA-MB-231 breast = system: MDA-MB-231 breast
EKVX NSCLC = system: EKVX NSCLC
NCI-H226 lung = system: NCI-H226 lung
HS 578T breast = system: HS 578T breast
OVCAR-5 ovarian = system: OVCAR-5 ovarian
SN12C renal = system: SN12C renal
A549 NSCLC = system: A549 NSCLC
SR leukemia = system: SR leukemia
SF-295 CNS = system: SF-295 CNS
LOX IMVI melanoma = system: LOX IMVI melanoma
SNB-75 CNS = system: SNB-75 CNS
KM12 colon = system: KM12 colon
COLO 205 colon = system: COLO 205 colon
SF-539 CNS = system: SF-539 CNS
SK-MEL-2 melanoma = system: SK-MEL-2 melanoma

Nc1ncc(-c2ccc3ncnc(N4CCc5cc(F)c(Cl)cc54)c3c2)cn1
GI50 (U251 CNS): 3.26 µM | TGI (U251 CNS): > 100 µM | GI50 (OVCAR-3 ovarian): 1.35 µM | TGI (OVCAR-3 ovarian): > 100 µM | GI50 (BT-549 breast): 1.06 µM | TGI (BT-549 breast): 7.34 µM | GI50 (MALME-3M melanoma): 1.73 µM | TGI (MALME-3M melanoma): > 100 µM | GI50 (786-0 renal): 0.741 µM | TGI (786-0 renal): > 100 µM | GI50 (IGROV1 ovarian): 0.244 µM | TGI (IGROV1 ovarian): 1.27 µM | GI50 (OVCAR-8 ovarian): 2.3 µM | TGI (OVCAR-8 ovarian): > 100 µM | GI50 (CCRF-CEM leukemia): 1.6 µM | TGI (CCRF-CEM leukemia): > 100 µM | GI50 (HOP-92 NSCLC): 0.323 µM | TGI (HOP-92 NSCLC): 3.71 µM | GI50 (SW-620 colon): 2.51 µM | TGI (SW-620 colon): > 100 µM | GI50 (SF-268 CNS): 1.02 µM | TGI (SF-268 CNS): > 100 µM | GI50 (K-562 leukemia): 3.16 µM | TGI (K-562 leukemia): > 100 µM | GI50 (PC-3 prostate): 1.03 µM | TGI (PC-3 prostate): > 100 µM | GI50 (HT29 colon): 1.77 µM | TGI (HT29 colon): > 100 µM | GI50 (UACC-257 melanoma): 3.73 µM | TGI (UACC-257 melanoma): > 100 µM | GI50 (RXF 393 renal): 0.35 µM | TGI (RXF 393 renal): 2.26 µM | GI50 (DU-145 prostate): 0.722 µM | TGI (DU-145 prostate): > 100 µM | GI50 (HCT-116 colon): 1.99 µM | TGI (HCT-116 colon): > 100 µM | GI50 (SK-MEL-28 melanoma): 2.64 µM | TGI (SK-MEL-28 melanoma): > 100 µM | GI50 (A498 renal): 0.256 µM | TGI (A498 renal): 1.46 µM | GI50 (NCI-H522 lung): 2.8 µM | TGI (NCI-H522 lung): > 100 µM | GI50 (RPMI-8226 leukemia): 0.866 µM | TGI (RPMI-8226 leukemia): 5.44 µM | GI50 (MDA-MB-435): 2.61 µM | TGI (MDA-MB-435): > 100 µM | GI50 (HCT-15 colon): 1.94 µM | TGI (HCT-15 colon): > 100 µM | GI50 (OVCAR-4 ovarian): 2.86 µM | TGI (OVCAR-4 ovarian): > 100 µM | GI50 (CAKI-1 renal): 0.418 µM | TGI (CAKI-1 renal): 6.76 µM | GI50 (NCI-H460 lung): 1.04 µM | TGI (NCI-H460 lung): > 100 µM | GI50 (HCC-2998 colon): 3.12 µM | TGI (HCC-2998 colon): > 100 µM | GI50 (MCF7 breast): 0.278 µM | TGI (MCF7 breast): > 100 µM | GI50 (TK-10 renal): 0.696 µM | TGI (TK-10 renal): 7.41 µM | GI50 (ACHN renal): 0.557 µM | TGI (ACHN renal): > 100 µM | GI50 (HOP-62 NSCLC): 1.45 µM | TGI (HOP-62 NSCLC): > 100 µM | GI50 (UACC-62 melanoma): 0.731 µM | TGI (UACC-62 melanoma): 6.87 µM | GI50 (SNB-19 CNS): 2.42 µM | TGI (SNB-19 CNS): > 100 µM | GI50 (HL-60(TB) leukemia): 1.13 µM | TGI (HL-60(TB) leukemia): > 100 µM | GI50 (NCI/ADR-RES ovarian): 2.7 µM | TGI (NCI/ADR-RES ovarian): > 100 µM | GI50 (SK-MEL-5 melanoma): 2.29 µM | TGI (SK-MEL-5 melanoma): 11 µM | GI50 (MOLT-4 leukemia): 1.83 µM | TGI (MOLT-4 leukemia): 36.6 µM | GI50 (M14 melanoma): 2.86 µM | TGI (M14 melanoma): > 100 µM | GI50 (MDA-MB-231 breast): 1.02 µM | TGI (MDA-MB-231 breast): 14.3 µM | GI50 (EKVX NSCLC): 0.499 µM | TGI (EKVX NSCLC): 10.1 µM | GI50 (NCI-H226 lung): 1.34 µM | TGI (NCI-H226 lung): > 100 µM | GI50 (HS 578T breast): 0.406 µM | TGI (HS 578T breast): 3.06 µM | GI50 (OVCAR-5 ovarian): 1.16 µM | TGI (OVCAR-5 ovarian): > 100 µM | GI50 (SN12C renal): 1.06 µM | TGI (SN12C renal): > 100 µM | GI50 (A549 NSCLC): 1.32 µM | TGI (A549 NSCLC): > 100 µM | GI50 (SR leukemia): 2.25 µM | TGI (SR leukemia): > 100 µM | GI50 (SF-295 CNS): 1.82 µM | TGI (SF-295 CNS): > 100 µM | GI50 (LOX IMVI melanoma): 1.94 µM | TGI (LOX IMVI melanoma): > 100 µM | GI50 (SNB-75 CNS): 0.162 µM | TGI (SNB-75 CNS): 1.85 µM | GI50 (KM12 colon): 3.36 µM | TGI (KM12 colon): > 100 µM | GI50 (COLO 205 colon): 1.91 µM | TGI (COLO 205 colon): 16 µM | GI50 (SF-539 CNS): 1.91 µM | TGI (SF-539 CNS): > 100 µM | GI50 (SK-MEL-2 melanoma): 2.43 µM | TGI (SK-MEL-2 melanoma): 8.53 µM
